Reference: article PMC3724473 (Biosensors & bioelectronics, 2012)

Experiments:
[1] = biological target: T1, CotA / bilirubin oxidase (BOD) from Bacillus pumilus (Bacillus pumilus, UniProt A8FAG9); assay: spectrophotometric at […] nm; type: biochemical; conditions: optimal pH (assay pH 7.2, 50 mM sodium phosphate), 37 °C
[2] = biological target: T1, CotA / bilirubin oxidase (BOD) from Bacillus pumilus; assay: spectrophotometric oxidation at […] nm, Michaelis-Menten fit; type: biochemical; conditions: optimal pH (assay pH 6.8), 37 °C, McIlvaine citrate-phosphate buffer

SMILES: C=CC1=C(C)/C(=C/c2[nH]c(Cc3[nH]c(/C=C4\NC(=O)C(C)=C4C=C)c(C)c3CCC(=O)O)c(CCC(=O)O)c2C)NC1=O [unconjugated bilirubin]
- Km [1]: 22 µM

SMILES: COc1cccc(OC)c1O [2,6-DMP, 2,6-dimethoxyphenol]
- Km [2]: 822 µM
